Reference: PubChem BioAssay (NCI)
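Five concentrations, 48 hours, 96-well plates. At the GI50, growth is halved. TGI denotes the concentration required for complete inhibition of growth.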

Assays:
Assay in all cases: NCI anticancer screen, dose series, 48 h
A498 renal = tested on: A498 renal
KM20L2 colon = tested on: KM20L2 colon
DMS 114 small cell lung = tested on: DMS 114 small cell lung
XF 498 CNS = tested on: XF 498 CNS
LXFL 529 NSCLC = tested on: LXFL 529 NSCLC
M19-MEL melanoma = tested on: M19-MEL melanoma
DLD-1 colon = tested on: DLD-1 colon
TK-10 renal = tested on: TK-10 renal
HOP-18 NSCLC = tested on: HOP-18 NSCLC
DMS 273 small cell lung = tested on: DMS 273 small cell lung
SNB-78 CNS = tested on: SNB-78 CNS
RXF-631 renal = tested on: RXF-631 renal

Compound	TGI (A498 renal) [µM]	TGI (TK-10 renal) [µM]	further results
COc1cc2c(oc(=O)c3c4oc([Si](C)(C)C)cc4cc(OC)c23)c2cccc(O)c12	> 100	> 100	TGI (KM20L2 colon): > 100 µM; TGI (DMS 114 small cell lung): > 100 µM; TGI (XF 498 CNS): > 100 µM; TGI (LXFL 529 NSCLC): > 100 µM; TGI (M19-MEL melanoma): > 100 µM; TGI (DLD-1 colon): > 100 µM; TGI (HOP-18 NSCLC): > 100 µM; TGI (DMS 273 small cell lung): > 100 µM
C=CCn1c(=O)c(-c2ccccc2)c(O)c2ccccc21	> 100	> 100	–
CC1=CC(=O)C[C@]2(C)[C@@H](O)CC(C(C)CO)C[C@@H]12 (stereo not given in full)	> 100	> 100	–
CCCCCCc1cc2cc(C(=O)Nc3cccc(C(F)(F)F)c3)c(=N)oc2cc1O	14	46.6	–
COc1ccccc1C1C(Cl)C(=O)N1NC(=O)Cc1ccccc1 (stereo not given)	–	> 100	TGI (KM20L2 colon): > 100 µM; TGI (DMS 114 small cell lung): > 100 µM; TGI (XF 498 CNS): > 100 µM; TGI (LXFL 529 NSCLC): > 100 µM; TGI (SNB-78 CNS): > 100 µM; TGI (M19-MEL melanoma): > 100 µM; TGI (HOP-18 NSCLC): > 100 µM; TGI (DMS 273 small cell lung): > 100 µM
Clc1ccc(CCN2CCN(CCCc3ccccc3)CC2)cc1Cl	30	30.1	–
N#C/C(=C/NC(=S)Nc1ccc(S(N)(=O)=O)cc1)C(N)=O	> 100	> 100	–
CC(C)CCC[C@@H](C)[C@H]1CC[C@H]2[C@@H]3CC=C4CC(OCCCCN(O)CCCSC5OC(CO)C(O)C(O)C5O)CC[C@]4(C)[C@H]3CC[C@]12C (stereo not given in full)	> 100	> 100	TGI (KM20L2 colon): > 100 µM; TGI (DMS 114 small cell lung): 45.6 µM; TGI (XF 498 CNS): > 100 µM; TGI (LXFL 529 NSCLC): 47.3 µM; TGI (SNB-78 CNS): > 100 µM; TGI (M19-MEL melanoma): > 100 µM; TGI (DLD-1 colon): > 100 µM; TGI (DMS 273 small cell lung): > 100 µM
COc1ccc2[nH]c3c(C)c4ccnc(NCCCN(C)CCCNC(=O)NCCCN(C)CCCNc5nccc6c(C)c7[nH]c8ccc(OC)cc8c7c(C)c56)c4c(C)c3c2c1	5	> 50	–
c1ccc(C2(c3cc4ccccc4[nH]3)OCCO2)cc1	> 100	> 100	–
C[C@H]1C(=O)C2=C[C@H]1CCC(=O)[C@]1(C)CCCC(C)(C)[C@H]1C[C@H]2O	> 100	28.7	–
COc1cc(C2c3cc4c(c(O)c3C(=O)C3CCC(=O)N32)OCO4)cc(OC)c1OC (stereo not given)	> 100	> 100	–
CCOc1c(OC)cc(CNNc2nccs2)cc1OC	> 100	> 100	–
Cc1ccc(-c2cn3c(nc4ccccc43)c(C)n2)cc1	> 77.5	> 100	–
O=C(CSCC(=O)N/N=C\c1cc(Br)cc(Br)c1O)N/N=C\c1cc(Br)cc(Br)c1O	–	71.8	–
COc1cc(OC)cc(N(C)Cc2cnc3nc(N)nc(N)c3c2C)c1	> 100	> 100	–
CC(C)(Oc1ccc(C2C[C@H]2Cl)cc1)C(=O)O (stereo not given in full)	> 100	> 100	–
COCN1C(=O)[C@@H]2C[C@@H](OC/C=C/CBr)CN2C(=O)c2ccccc21	66.4	49.7	–

Compound	TGI (A498 renal) [µM]	TGI (TK-10 renal) [µM]	further results
C[N+](C)(C)CC(=O)N/N=C(\C(=O)Nc1ccc(Cl)cc1)C1C(=O)N(c2ccccc2)N=C1N (stereo not given)	> 100	> 100	TGI (KM20L2 colon): > 100 µM; TGI (DMS 114 small cell lung): > 100 µM; TGI (LXFL 529 NSCLC): > 100 µM; TGI (SNB-78 CNS): > 100 µM; TGI (M19-MEL melanoma): > 100 µM; TGI (DLD-1 colon): > 100 µM; TGI (DMS 273 small cell lung): > 100 µM
C=CC(C)(C)c1cc([C@@H]2COc3cc(O)ccc3C2=O)c(O)c(OC)c1OC	35.4	> 100	–
O=c1[nH]c2cccccc-2c1-c1nc2ccccc2[nH]1	–	> 100	TGI (KM20L2 colon): > 100 µM; TGI (DMS 114 small cell lung): > 100 µM; TGI (XF 498 CNS): 42.3 µM; TGI (LXFL 529 NSCLC): > 100 µM; TGI (SNB-78 CNS): > 100 µM; TGI (M19-MEL melanoma): > 100 µM; TGI (DLD-1 colon): > 100 µM; TGI (DMS 273 small cell lung): 70.6 µM
CC(C)Oc1c(O)c2c3c(oc(=O)n3C=CC2c2ccccc2F)c1OC(C)C (stereo not given)	> 100	> 100	–
COC[C@@H](N=Cc1ccc(OC)cc1)C(C)C	–	> 100	–
O=C(N/N=C/c1cc(-c2ccccc2Cl)c(-c2ccccc2Cl)o1)c1ccncc1	> 100	> 100	TGI (RXF-631 renal): > 100 µM; TGI (KM20L2 colon): > 100 µM; TGI (DMS 114 small cell lung): > 100 µM; TGI (XF 498 CNS): > 100 µM; TGI (LXFL 529 NSCLC): > 100 µM; TGI (M19-MEL melanoma): > 100 µM; TGI (DLD-1 colon): > 100 µM
CC(=O)CC(=O)Nn1c(-c2cccs2)nc2ccc(I)cc2c1=O	43.1	> 100	GI50 (A498 renal): 19.9 µM
CCCCCCCCCCCCCCCCCc1nc(C#N)c(N)o1	> 100	> 100	–
O=C1N[C@@H](c2c[nH]c3ccc(Br)cc23)C(=O)N[C@H]1c1c[nH]c2ccc(Br)cc12	18.5	21.7	–
CC1=C2CC3=C(C)C(=O)O[C@H]3C[C@@H](C)[C@@H]2CC1	> 100	> 100	–
O=C(c1ccccc1)c1cc(-c2ccccc2)c(-c2ccccc2)[nH]c(=O)c1=O	> 100	> 100	–
COc1c(-c2ccc3c(c2)OCO3)oc2cc3c(c(OC)c2c1=O)OCO3	50.3	80.4	–
Cc1ccc(-c2c(C#N)c(O)n(NS(=O)(=O)c3ccccc3)c(=O)c2C#N)cc1	> 100	> 100	–
COc1ccc(/C=N/NC(=O)c2ccccc2Nc2ccccc2C(=O)N/N=C/c2ccc(OC)c(OC)c2)cc1OC	> 100	> 100	–
CC(C)(C)C(=O)C(C#N)C(=O)C(C)(C)C	> 100	> 100	–
COc1ccc(N=Nc2ccc3oc(=O)c(C(=O)Nc4ccc(OC)cc4)cc3c2)cc1	9.17	> 100	–
COC(=O)C1(C(=O)OC)CC2=C(S(=O)(=O)c3ccccc3)C[C@@H](C#N)[C@H]2C1	> 100	> 100	–
CN1CCN(c2nc3c(c(=O)n(C)c(=O)n3C)n2C)CC1	> 100	> 100	–
